Format in all cases: cell-based
Assay [1] deals with human colon cancer cells (HCT-116). Put plainly: scratch assay, migration of HCT-116 cells. As to conditions: HCT-116, 10 μM, 48 hours; control group 47.78 ± 6.07. The procedure, abridged: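 Confluent HCT-116 monolayers were scratched, washed and cultured 48 h in 2% FBS medium with peptide at 10 μM versus PBS control, triplicate wells. Migration rate (%) = (original minus current scratch width)/original width × 100, from at least 3 images per well.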

The subject of assay [2] is human pancreatic cancer cells (PANC-1). Put plainly: transwell invasion assay, PANC-1 cells. As to conditions: PANC-1 transwell invasion, 10 μM, 24 hours; control group 727 ± 68. The method in brief: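 Serum-free PANC-1 cells were seeded in matrigel-coated upper chambers with complete medium below. After 4-5 hours at 37° C., peptide was added at 10 μM final. Following 24 hours, invaded cells on the lower membrane surface were fixed, crystal violet-stained, imaged and counted against untreated controls.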

In assay [3] the test system is human non-small cell lung cancer cells (A549). Put plainly: scratch assay, migration of A549 cells. The conditions noted are these: A549, 10 μM, 48 hours; control group 75.31 ± 8.19. The method in brief:
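Confluent A549 monolayers in 24-well plates were scratched, washed with PBS, then cultured 48 h in 2% FBS medium with peptide at 10 μM or PBS control, triplicate wells. Scratch width measured from images; migration rate (%) = (original − current width)/original width × 100.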

Assay [4] concerns human breast cancer cells (MCF-7). Put plainly: scratch assay, migration of MCF-7 cells. The conditions noted are these: MCF-7, 10 μM, 48 hours; control group 30.97 ± 1.79. The method in brief: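 MCF-7 monolayers scratched, then cultured 48 hours in 2% FBS medium with test peptide at 10 μM versus PBS control, triplicate wells. Migration rate (%) = (original − current scratch width)/original width × 100, measured from images.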

In assay [5] the test system is human pancreatic cancer cells (PANC-1). Put plainly: scratch assay, migration of PANC-1 cells. The conditions noted are these: PANC-1, 10 μM, 48 hours; control group 66.65 ± 3.37. The procedure, abridged: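 PANC-1 monolayers were scratched, then cultured for 48 h with 10 μM test compound in 2% FBS medium, in three parallel wells per group against a PBS control. Migration rate (%) was calculated as (original minus current scratch width) / original width × 100, from imaged wells.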

The test system of assay [6] is human liver cancer cells (HepG2). Put plainly: scratch assay, migration of HepG2 cells. As to conditions: HepG2, 10 μM, 48 hours; control group 71.01 ± 6.63. The method in brief: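 HepG2 monolayers scratched, then cultured 48 h in 2% FBS medium with test polypeptides at 10 μM versus PBS control, triplicate wells. Migration rate (%) computed from original versus current scratch width in images.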

For assay [7], the system named is human breast cancer cells (MDA-MB-231). Put plainly: scratch assay, migration of MDA-MB-231 cells. The conditions noted are these: MDA-MB-231, 10 μM, 48 hours; control group 36.19 ± 5.15. The procedure, abridged:
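MDA-MB-231 monolayers (1-2×10^5 cells/well) were scratched, then kept 48 h in medium with 2% FBS containing polypeptide at 10 μM, with a PBS control, in triplicate wells. Migration rate (%) was taken from scratch width: (original − current)/original ×100.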

For assay [8], the system named is human pancreatic cancer cells (PANC-1). Put plainly: transwell migration assay, PANC-1 cells. The conditions noted are these: PANC-1 transwell migration, 10 μM, 24 hours; control group 360 ± 60. The method in brief:
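Serum-free PANC-1 cells placed in the upper transwell chamber with complete medium below; after 4-5 h, peptide added to the upper chamber at a final 10 μM. Migration ran 24 h at 37 °C; cells on the membrane underside were methanol-fixed, crystal violet-stained and counted by microscopy.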

Ends that are not written are not given here. PEG = not defined here

This note sets out measurements from US20220280594A1, “APPLICATION OF POLYPEPTIDE OR DERIVATIVE THEREOF” (CHENGDU HUITAI BIOMEDICINE CO., LTD., priority 2019, published 2022).

For “N35: SEQ ID NO: 1 with A15R, addition of one amino acid and PEG modification at the carboxyl terminal (YRVRFLAKENVTQDREDNC-{PEG}; reading uncertain)”, the “Migration rate (%) (mean ± SD, P)” value in assay [1] is 9.08 ± 2.64,*** %; in assay [3], 32.27 ± 9.53,** %; in assay [4], 17.38 ± 2.55,* %; in assay [5] it was 36.83 ± 5.92,** %; in assay [6], 16.83 ± 7.92,*** %; in assay [7], 18.12 ± 5.23,* %. The “Number of cells (mean ± SD, P), invaded cells” value in assay [2] is on record as 358 ± 23,***. The “Number of cells (mean ± SD, P), migrated cells” value in assay [8] was 151 ± 10,***.
As to “N37: SEQ ID NO: 1 with addition of two amino acids to the carboxyl terminal and PEG modification at the amino terminal ({PEG}-YRVRFLAKENVTQDAEDNCT; reading uncertain)”, the “Migration rate (%) (mean ± SD, P)” value in assay [1] is 4.99 ± 1.68,*** %; in assay [3], 49.45 ± 10.09,* %; in assay [4], 8.64 ± 3.76,** %; in assay [5] it was 18.23 ± 6.77,*** %; in assay [6], 13.81 ± 6.14,*** %; in assay [7], 20.43 ± 3.23,* %. Also, the “Number of cells (mean ± SD, P), invaded cells” value in assay [2] is given as 359 ± 34,***. The “Number of cells (mean ± SD, P), migrated cells” value in assay [8] is on record as 113 ± 11,***.
As to “N38: SEQ ID NO: 1 with one amino acid added at each terminal and PEG modification at the carboxyl terminal (FYRVRFLAKENVTQDAEDNC-{PEG}; reading uncertain)”, the “Migration rate (%) (mean ± SD, P)” value in assay [1] is listed as 5.97 ± 2.44,*** %; in assay [3], 46.92 ± 4.49,** %; in assay [4] it was 6.93 ± 2.24,** %; in assay [5], 24.87 ± 5.81,*** %; in assay [6] it was 12.81 ± 7.32,*** %; in assay [7], 18.99 ± 3.25,* %. The “Number of cells (mean ± SD, P), invaded cells” value in assay [2] is given as 2.62 ± 21,****. Further, the “Number of cells (mean ± SD, P), migrated cells” value in assay [8] was 116 ± 27,***.
As for “N39: SEQ ID NO: 1 with addition of two amino acids and PEG modification at the carboxyl terminal (YRVRFLAKENVTQDAEDNTC-{PEG}; reading uncertain)”, the “Migration rate (%) (mean ± SD, P)” value in assay [1] is 4.29 ± 2.88,*** %; in assay [3], 56.39 ± 6.30,* %; in assay [4], 7.74 ± 2.46,** %; in assay [5], 16.29 ± 8.00,*** %; in assay [6], 15.73 ± 6.79,*** %; in assay [7], 19.08 ± 3.17,* %. In assay [2], the “Number of cells (mean ± SD, P), invaded cells” value is 278 ± 16,****. In addition, the “Number of cells (mean ± SD, P), migrated cells” value in assay [8] is on record as 262 ± 13,*.
As to “N40: SEQ ID NO: 1 with deletion of positions 1-5 and 15-18, PEG at the amino terminal, two amino acids added at the carboxyl terminal ({PEG}-LAKENVTQDRC; reading uncertain)”, the “Migration rate (%) (mean ± SD, P)” value in assay [1] was 2.19 ± 1.45,*** %; in assay [3] it was 20.15 ± 8.91,** %; in assay [4], 4.36 ± 1.35,*** %; in assay [5] it was 13.24 ± 8.56,*** %; in assay [6], 32.55 ± 4.09,** %; in assay [7], 21.12 ± 4.15,* %. The “Number of cells (mean ± SD, P), invaded cells” value in assay [2] is 273 ± 21,****. The “Number of cells (mean ± SD, P), migrated cells” value in assay [8] was 264 ± 12,*.
On to “N41: SEQ ID NO: 1 with addition of two amino acids at the amino terminal, deletion of position 18, PEG at the carboxyl terminal (FRYRVRFLAKENVTQDAED-{PEG}; reading uncertain)”, for which the “Migration rate (%) (mean ± SD, P)” value in assay [1] is recorded as 5.78 ± 2.76,*** %; in assay [3], 56.03 ± 3.75,* %; in assay [4] it was 5.19 ± 2.94,*** %; in assay [5], 14.44 ± 7.40,*** %; in assay [6] it was 25.59 ± 6.26,*** %; in assay [7] it was 14.75 ± 4.28,** %. Further, in assay [2], the “Number of cells (mean ± SD, P), invaded cells” value is 288 ± 38,****. Moreover, the “Number of cells (mean ± SD, P), migrated cells” value in assay [8] is listed as 248 ± 22,*.
Regarding “N42: SEQ ID NO: 1 with deletion of positions 1-5 and 15-18, PEG at the amino terminal, one amino acid added at the carboxyl terminal ({PEG}-LAKENVTQDR; reading uncertain)”, the “Migration rate (%) (mean ± SD, P)” value is reported as 6.75 ± 2.33,*** % in assay [1]; 60.74 ± 3.40,* % in assay [3]; 10.04 ± 2.28,** % in assay [4]; 24.26 ± 7.91,** % in assay [5]; 30.92 ± 4.57,** % in assay [6]; 17.91 ± 3.66,** % in assay [7]. The “Number of cells (mean ± SD, P), invaded cells” value in assay [2] is 399 ± 21,***. Besides, the “Number of cells (mean ± SD, P), migrated cells” value in assay [8] was 236 ± 14,**.
With “N43: SEQ ID NO: 1 with addition of one amino acid at the amino terminal, deletion of position 18, PEG at the carboxyl terminal (RYRVRFLAKENVTQDAED-{PEG}; reading uncertain)”, the “Migration rate (%) (mean ± SD, P)” value is on record as 4.56 ± 1.52,*** % in assay [1]; 57.74 ± 5.39,* % in assay [3]; 7.83 ± 3.42,** % in assay [4]; 18.87 ± 6.90,*** % in assay [5]; 26.54 ± 7.89,** % in assay [6]; 12.19 ± 5.70,** % in assay [7]. In assay [2], the “Number of cells (mean ± SD, P), invaded cells” value was 251 ± 10,****. In addition, the “Number of cells (mean ± SD, P), migrated cells” value in assay [8] is reported as 157 ± 15,***.
As for “N45: SEQ ID NO: 1 with V11R, deletion of positions 1-5 and 15-18, PEG modification at the carboxyl terminal (LAKENRTQD-{PEG}; reading uncertain)”, the “Migration rate (%) (mean ± SD, P)” value in assay [1] was 28.34 ± 2.87,** %; in assay [3], 56.03 ± 4.21,* %; in assay [4] it was 17.06 ± 2.87,* %; in assay [5], 45.16 ± 5.74,** %; in assay [6], 52.98 ± 4.08,* %; in assay [7] it was 13.02 ± 4.54,** %. In assay [2], the “Number of cells (mean ± SD, P), invaded cells” value was 358 ± 23,***. Moreover, the “Number of cells (mean ± SD, P), migrated cells” value in assay [8] is reported as 135 ± 10,***.
Turning to “N47: SEQ ID NO: 1 with N18R, deletion of positions 1-2, one amino acid added and PEG at the carboxyl terminal (VRFLAKENVTQDAEDRC-{PEG}; reading uncertain)”, the “Migration rate (%) (mean ± SD, P)” value in assay [1] is on record as 18.92 ± 2.11,** %; in assay [3] it was 54.66 ± 4.73,* %; in assay [4], 18.41 ± 2.35,* %; in assay [5], 36.05 ± 5.62,** %; in assay [6] it was 54.67 ± 7.02,* %; in assay [7], 21.82 ± 4.11,* %. For the same substance, in assay [2], the “Number of cells (mean ± SD, P), invaded cells” value is recorded as 133 ± 29,****. In addition, the “Number of cells (mean ± SD, P), migrated cells” value in assay [8] was 135 ± 10,***.
